Reference: the supplement of paper PMC10132981, “Formate overflow drives toxic folate trapping in MTHFD1 inhibited cancer cells” (Nature Metabolism, 2023)
± gives the standard deviation of the averaged measurements.

Legend:
SW620 MTHFD2 -/- = assay: EC50 for viability (resazurin, 96 h); settings: RPMI+GlutaMAX (5% dFBS, 1% P/S)
SW620 MTHFD2-/- = assay: EC50 for viability (resazurin, 96 h); settings: RPMI+GlutaMAX (5% dFBS, 1% P/S); metabolite supplement: Hypoxanthine + Formate
SW620 WT = assay: EC50 for viability (resazurin, 96 h); settings: RPMI+GlutaMAX (5% dFBS, 1% P/S)
SW620 [1] = assay: EC50 for viability (resazurin, 96 h)
SW620 [2] = assay: cell viability relative to lowest-dose well (resazurin, 96 h); higher = more viable; settings: RPMI + 10% FBS
Method in brief: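 HCT116 (500 cells/well) or SW620 (1,000 cells/well) cells were seeded in 50 µl RPMI with 10% FBS plus a metabolite supplement in 384-well plates. Compounds were dispensed from 10 mM DMSO stocks as dilution series, and plates were incubated 96 h at 37 °C, 5% CO2. Viability was read as resazurin (10 µg ml^−1) conversion to resorufin after 5 h, by fluorescence at 595 nm. Values are percent of the lowest-dose well, with independent replicate cultures. Viability was read by resazurin-to-resorufin conversion and normalised to the lowest-dose vehicle well (=100%).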

Cc1c(N2CCN(C)[C@@H](C)C2)ccc2c3c(c(=O)oc12)CN(C(=O)c1ccc(NS(C)(=O)=O)c(OC(F)(F)F)c1)CC3
EC50 for viability [nM]
Settings	metabolite supplement: Adenine	metabolite supplement: Adenosine	metabolite supplement: Guanosine	metabolite supplement: Hypoxanthine	metabolite supplement: Sodium Formate	metabolite supplement: Thymidine	metabolite supplement: Thymidine + Sodium Formate	metabolite supplement: Vehicle
SW620 MTHFD2 -/-	–	–	–	–	> 10000	86.3 ± 2.7	0.383	178 ± 350
SW620 WT	> 10000	> 10000	2970	> 10000	–	1070	–	889 ± 110

Settings	EC50 for viability [nM]
SW620 MTHFD2-/-	> 10000

Settings	EC50 for viability [nM]	cell viability [%]
SW620 [1], HPLM (5% dFBS, 1% P/S), metabolite supplement: Vehicle	> 10000	–
SW620 [1], RPMI+GlutaMAX (5% FBS, 1% P/S), metabolite supplement: Vehicle	> 10000	–
SW620 [1], RPMI+GlutaMAX (5% dFBS, 1% P/S), metabolite supplement: 50 µM Hypoxanthine	> 10000	–
SW620 [1], RPMI+GlutaMAX (5% dFBS, 1% P/S), metabolite supplement: Vehicle	553 ± 450	–
SW620 [1], RPMI+GlutaMAX (10% FBS, 1% P/S), metabolite supplement: Hypoxanthine	7050	–
SW620 [1], RPMI+GlutaMAX (10% FBS, 1% P/S), metabolite supplement: Sodium Formate	6170	–
SW620 [1], RPMI+GlutaMAX (10% FBS, 1% P/S), metabolite supplement: Thymidine	447	–
SW620 [1], RPMI+GlutaMAX (10% FBS, 1% P/S), metabolite supplement: Thymidine + Hypoxanthine	> 10000	–
SW620 [1], RPMI+GlutaMAX (10% FBS, 1% P/S), metabolite supplement: Thymidine + Sodium Formate	> 10000	–
SW620 [2], 0.001 µM, metabolite supplement: 1mM sodium formate	–	100 ± 2.4
SW620 [2], 0.001 µM, metabolite supplement: 50uM thymidine	–	99.1 ± 2.6
SW620 [2], 0.001 µM, metabolite supplement: 50uM thymidine + 1mM sodium formate	–	99.4 ± 5
SW620 [2], 0.001 µM, metabolite supplement: 50uM thymidine + 250uM hypoxanthine	–	100 ± 1.9
SW620 [2], 0.001 µM, metabolite supplement: 250uM hypoxanthine	–	100 ± 3.8
SW620 [2], 0.001 µM, metabolite supplement: vehicle	–	97 ± 2.5
SW620 [2], 0.00301 µM, metabolite supplement: 1mM sodium formate	–	98.27 ± 0.76
SW620 [2], 0.00301 µM, metabolite supplement: 50uM thymidine	–	97.2 ± 3.5
SW620 [2], 0.00301 µM, metabolite supplement: 50uM thymidine + 1mM sodium formate	–	102 ± 4.1
SW620 [2], 0.00301 µM, metabolite supplement: 50uM thymidine + 250uM hypoxanthine	–	102.3 ± 0.31
SW620 [2], 0.00301 µM, metabolite supplement: 250uM hypoxanthine	–	96.6 ± 5.2
SW620 [2], 0.00301 µM, metabolite supplement: vehicle	–	97.3 ± 2.9
SW620 [2], 0.00903 µM, metabolite supplement: 1mM sodium formate	–	97.8 ± 2.1
SW620 [2], 0.00903 µM, metabolite supplement: 50uM thymidine	–	96 ± 5.5
SW620 [2], 0.00903 µM, metabolite supplement: 50uM thymidine + 1mM sodium formate	–	101 ± 2.7
SW620 [2], 0.00903 µM, metabolite supplement: 50uM thymidine + 250uM hypoxanthine	–	102 ± 1.4
SW620 [2], 0.00903 µM, metabolite supplement: 250uM hypoxanthine	–	98.9 ± 4.9
SW620 [2], 0.00903 µM, metabolite supplement: vehicle	–	96.4 ± 4.2
SW620 [2], 0.0271 µM, metabolite supplement: 1mM sodium formate	–	100 ± 2
SW620 [2], 0.0271 µM, metabolite supplement: 50uM thymidine	–	99.6 ± 3.1
SW620 [2], 0.0271 µM, metabolite supplement: 50uM thymidine + 1mM sodium formate	–	102 ± 3
SW620 [2], 0.0271 µM, metabolite supplement: 50uM thymidine + 250uM hypoxanthine	–	104 ± 1.5
SW620 [2], 0.0271 µM, metabolite supplement: 250uM hypoxanthine	–	99.5 ± 4
SW620 [2], 0.0271 µM, metabolite supplement: vehicle	–	97.6 ± 1.1
SW620 [2], 0.0816 µM, metabolite supplement: 1mM sodium formate	–	101 ± 0.87
SW620 [2], 0.0816 µM, metabolite supplement: 50uM thymidine	–	97.1 ± 4.2
SW620 [2], 0.0816 µM, metabolite supplement: 50uM thymidine + 1mM sodium formate	–	105 ± 3.8
SW620 [2], 0.0816 µM, metabolite supplement: 50uM thymidine + 250uM hypoxanthine	–	107 ± 1.5
SW620 [2], 0.0816 µM, metabolite supplement: 250uM hypoxanthine	–	97.4 ± 3
SW620 [2], 0.0816 µM, metabolite supplement: vehicle	–	95.4 ± 3.5
SW620 [2], 0.245 µM, metabolite supplement: 1mM sodium formate	–	97.7 ± 3.2
SW620 [2], 0.245 µM, metabolite supplement: 50uM thymidine	–	85.4 ± 0.99
SW620 [2], 0.245 µM, metabolite supplement: 50uM thymidine + 1mM sodium formate	–	104 ± 2.2
SW620 [2], 0.245 µM, metabolite supplement: 50uM thymidine + 250uM hypoxanthine	–	107.8 ± 0.7
SW620 [2], 0.245 µM, metabolite supplement: 250uM hypoxanthine	–	99.9 ± 4
SW620 [2], 0.245 µM, metabolite supplement: vehicle	–	86.4 ± 2.3
SW620 [2], 0.737 µM, metabolite supplement: 1mM sodium formate	–	95.9 ± 4
SW620 [2], 0.737 µM, metabolite supplement: 50uM thymidine	–	69.5 ± 2.1
SW620 [2], 0.737 µM, metabolite supplement: 50uM thymidine + 1mM sodium formate	–	100 ± 1.2
SW620 [2], 0.737 µM, metabolite supplement: 50uM thymidine + 250uM hypoxanthine	–	108 ± 1.3
SW620 [2], 0.737 µM, metabolite supplement: 250uM hypoxanthine	–	97 ± 3.2
SW620 [2], 0.737 µM, metabolite supplement: vehicle	–	71.13 ± 0.45
SW620 [2], 2.21 µM, metabolite supplement: 1mM sodium formate	–	89 ± 1.1
SW620 [2], 2.21 µM, metabolite supplement: 50uM thymidine	–	61.5 ± 3.3
SW620 [2], 2.21 µM, metabolite supplement: 50uM thymidine + 1mM sodium formate	–	102 ± 4.7
SW620 [2], 2.21 µM, metabolite supplement: 50uM thymidine + 250uM hypoxanthine	–	106 ± 2.1
SW620 [2], 2.21 µM, metabolite supplement: 250uM hypoxanthine	–	84.7 ± 4.6
SW620 [2], 2.21 µM, metabolite supplement: vehicle	–	63.2 ± 2.9
SW620 [2], 6.65 µM, metabolite supplement: 1mM sodium formate	–	62.4 ± 5.1
SW620 [2], 6.65 µM, metabolite supplement: 50uM thymidine	–	58.1 ± 3.9
SW620 [2], 6.65 µM, metabolite supplement: 50uM thymidine + 1mM sodium formate	–	101 ± 6.5
SW620 [2], 6.65 µM, metabolite supplement: 50uM thymidine + 250uM hypoxanthine	–	102 ± 2.5
SW620 [2], 6.65 µM, metabolite supplement: 250uM hypoxanthine	–	66.4 ± 4.7
SW620 [2], 6.65 µM, metabolite supplement: vehicle	–	60.8 ± 5.5
SW620 [2], 20 µM, metabolite supplement: 1mM sodium formate	–	39.2 ± 3.1
SW620 [2], 20 µM, metabolite supplement: 50uM thymidine	–	54.3 ± 3.2
SW620 [2], 20 µM, metabolite supplement: 50uM thymidine + 1mM sodium formate	–	89.9 ± 1.1
SW620 [2], 20 µM, metabolite supplement: 50uM thymidine + 250uM hypoxanthine	–	88.6 ± 7.4
SW620 [2], 20 µM, metabolite supplement: 250uM hypoxanthine	–	44.2 ± 6
SW620 [2], 20 µM, metabolite supplement: vehicle	–	55 ± 4.3
